According to article PMC7026418, “The kinase polypharmacology landscape of clinical PARP inhibitors” (Scientific Reports, 2020):
Read-outs that look alike come from different tables or passages of the source. Each block holds one compound with its values, some of them ahead of it.

Experiments:
Test in all cases: biochemical
Parameters in all cases: DiscoveRx KINOMEscan active site-directed competition binding; percent of control kinase bound to immobilised ligand
CDK2 = CDK2 (Homo sapiens, UniProt P24941)
FER = FER (Homo sapiens, UniProt P16591)
FGFR4 = FGFR4 (Homo sapiens, UniProt P22455)
FLT3(D835V) = biological target: T1, FLT3(D835V) (Homo sapiens, UniProt P36888, D835V)
T1 sequence (P36888 1-993 D835V): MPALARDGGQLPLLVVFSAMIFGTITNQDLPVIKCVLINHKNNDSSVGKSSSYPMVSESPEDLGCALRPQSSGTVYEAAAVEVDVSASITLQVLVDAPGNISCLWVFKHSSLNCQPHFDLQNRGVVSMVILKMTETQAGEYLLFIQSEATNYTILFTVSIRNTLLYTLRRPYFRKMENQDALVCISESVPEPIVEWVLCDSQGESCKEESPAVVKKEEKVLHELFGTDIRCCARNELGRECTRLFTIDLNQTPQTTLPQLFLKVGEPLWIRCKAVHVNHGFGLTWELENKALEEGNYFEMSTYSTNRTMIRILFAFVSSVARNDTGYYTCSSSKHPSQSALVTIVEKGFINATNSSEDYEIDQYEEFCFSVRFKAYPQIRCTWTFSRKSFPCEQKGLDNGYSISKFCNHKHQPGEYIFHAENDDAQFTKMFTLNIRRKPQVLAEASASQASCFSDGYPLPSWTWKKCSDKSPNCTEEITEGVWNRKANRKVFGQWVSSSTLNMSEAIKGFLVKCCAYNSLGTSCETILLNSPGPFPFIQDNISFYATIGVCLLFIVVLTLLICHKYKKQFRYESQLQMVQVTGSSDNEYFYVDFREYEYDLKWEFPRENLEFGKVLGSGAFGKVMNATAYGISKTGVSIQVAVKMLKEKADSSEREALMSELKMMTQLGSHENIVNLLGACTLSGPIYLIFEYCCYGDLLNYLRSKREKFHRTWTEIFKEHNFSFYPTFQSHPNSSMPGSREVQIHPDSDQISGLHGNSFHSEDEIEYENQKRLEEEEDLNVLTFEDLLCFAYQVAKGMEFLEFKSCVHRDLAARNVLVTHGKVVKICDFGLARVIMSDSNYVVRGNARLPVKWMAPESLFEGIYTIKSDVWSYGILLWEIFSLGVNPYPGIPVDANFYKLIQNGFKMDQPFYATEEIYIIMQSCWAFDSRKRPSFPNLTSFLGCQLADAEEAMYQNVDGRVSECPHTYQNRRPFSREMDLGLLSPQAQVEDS

FLT4 = FLT4 (Homo sapiens, UniProt P35916)
HIPK3 = HIPK3 (Homo sapiens, UniProt Q9H422)
[1] = biological target: T2, JAK3(JH1domain-catalytic) (Homo sapiens, UniProt P52333)
T2 construct: JH1domain-catalytic
T2 sequence (P52333 1-1124): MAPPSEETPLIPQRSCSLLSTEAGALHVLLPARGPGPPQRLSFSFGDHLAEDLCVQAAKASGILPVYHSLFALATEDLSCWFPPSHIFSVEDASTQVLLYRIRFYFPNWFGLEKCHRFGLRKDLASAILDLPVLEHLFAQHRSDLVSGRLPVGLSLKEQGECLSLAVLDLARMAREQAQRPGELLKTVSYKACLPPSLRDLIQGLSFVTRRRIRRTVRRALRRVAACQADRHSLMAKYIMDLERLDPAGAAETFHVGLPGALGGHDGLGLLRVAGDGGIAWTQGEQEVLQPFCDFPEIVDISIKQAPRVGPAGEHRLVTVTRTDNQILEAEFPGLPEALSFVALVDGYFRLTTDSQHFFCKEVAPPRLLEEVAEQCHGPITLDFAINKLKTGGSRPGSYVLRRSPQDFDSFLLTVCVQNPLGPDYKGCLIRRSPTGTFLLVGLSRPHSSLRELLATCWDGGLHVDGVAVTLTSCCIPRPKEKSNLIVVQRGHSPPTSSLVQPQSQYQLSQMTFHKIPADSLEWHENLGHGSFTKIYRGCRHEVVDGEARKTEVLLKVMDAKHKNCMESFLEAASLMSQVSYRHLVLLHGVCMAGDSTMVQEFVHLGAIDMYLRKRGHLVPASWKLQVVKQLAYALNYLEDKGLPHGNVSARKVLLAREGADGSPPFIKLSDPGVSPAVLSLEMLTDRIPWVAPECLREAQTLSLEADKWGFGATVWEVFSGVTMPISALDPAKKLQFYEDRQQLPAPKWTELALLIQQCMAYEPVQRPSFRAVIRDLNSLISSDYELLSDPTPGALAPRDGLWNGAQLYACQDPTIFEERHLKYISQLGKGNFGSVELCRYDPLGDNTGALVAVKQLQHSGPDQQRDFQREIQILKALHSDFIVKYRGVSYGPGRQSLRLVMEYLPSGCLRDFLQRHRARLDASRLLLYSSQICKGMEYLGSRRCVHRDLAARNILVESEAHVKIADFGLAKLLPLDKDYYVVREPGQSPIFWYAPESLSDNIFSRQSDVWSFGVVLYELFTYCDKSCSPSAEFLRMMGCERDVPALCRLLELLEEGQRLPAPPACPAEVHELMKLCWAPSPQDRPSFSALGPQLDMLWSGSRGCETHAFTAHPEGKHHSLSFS

[2] = biological target: T3, RPS6KA4(Kin.Dom.2-C-terminal) (Homo sapiens, UniProt O75676)
T3 construct: Kin.Dom.2-C-terminal

TGFBR2 = TGFBR2 (Homo sapiens, UniProt P37173)
[3] = read-out: Niraparib (MK-4827) / %Ctrl @ 10000nM
[4] = read-out: Olaparib / %Ctrl @ 10000nM
[5] = read-out: Rucaparib / %Ctrl @ 10000nM, binding competition, % of control
[6] = read-out: Talazoparib (BMN 673) / %Ctrl @ 10000nM

HIPK3, sequence (Q9H422 whole entry): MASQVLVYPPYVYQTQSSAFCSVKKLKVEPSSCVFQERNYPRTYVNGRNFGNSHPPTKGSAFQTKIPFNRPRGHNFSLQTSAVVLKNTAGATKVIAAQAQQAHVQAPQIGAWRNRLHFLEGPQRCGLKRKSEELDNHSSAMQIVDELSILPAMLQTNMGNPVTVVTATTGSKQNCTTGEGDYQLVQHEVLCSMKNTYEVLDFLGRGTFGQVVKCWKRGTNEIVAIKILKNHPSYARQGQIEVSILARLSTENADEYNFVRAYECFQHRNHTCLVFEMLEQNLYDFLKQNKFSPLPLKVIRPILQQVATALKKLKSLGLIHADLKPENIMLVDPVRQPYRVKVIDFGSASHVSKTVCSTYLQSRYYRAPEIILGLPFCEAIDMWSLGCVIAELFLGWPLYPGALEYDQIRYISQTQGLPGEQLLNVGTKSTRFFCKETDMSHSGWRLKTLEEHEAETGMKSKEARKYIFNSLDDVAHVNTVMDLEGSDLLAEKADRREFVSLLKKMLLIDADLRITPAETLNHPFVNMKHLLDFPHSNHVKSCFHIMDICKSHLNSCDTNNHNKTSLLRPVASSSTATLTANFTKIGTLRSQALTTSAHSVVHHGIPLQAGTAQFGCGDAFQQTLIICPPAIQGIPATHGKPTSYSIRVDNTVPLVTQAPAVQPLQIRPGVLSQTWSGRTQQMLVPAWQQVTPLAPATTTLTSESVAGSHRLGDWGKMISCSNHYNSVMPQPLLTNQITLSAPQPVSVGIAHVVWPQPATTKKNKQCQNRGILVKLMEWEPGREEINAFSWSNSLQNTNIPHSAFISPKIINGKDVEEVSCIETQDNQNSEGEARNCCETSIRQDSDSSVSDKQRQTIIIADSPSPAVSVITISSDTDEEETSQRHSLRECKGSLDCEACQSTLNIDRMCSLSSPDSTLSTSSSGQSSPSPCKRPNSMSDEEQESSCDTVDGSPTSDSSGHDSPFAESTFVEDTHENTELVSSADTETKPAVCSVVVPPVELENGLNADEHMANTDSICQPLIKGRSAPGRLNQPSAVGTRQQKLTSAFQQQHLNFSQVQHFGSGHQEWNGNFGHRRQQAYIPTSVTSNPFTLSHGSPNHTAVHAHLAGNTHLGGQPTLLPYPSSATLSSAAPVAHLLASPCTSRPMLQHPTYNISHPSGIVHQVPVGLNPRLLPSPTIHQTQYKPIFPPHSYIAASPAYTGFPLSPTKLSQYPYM
FGFR4, sequence (P22455 whole entry): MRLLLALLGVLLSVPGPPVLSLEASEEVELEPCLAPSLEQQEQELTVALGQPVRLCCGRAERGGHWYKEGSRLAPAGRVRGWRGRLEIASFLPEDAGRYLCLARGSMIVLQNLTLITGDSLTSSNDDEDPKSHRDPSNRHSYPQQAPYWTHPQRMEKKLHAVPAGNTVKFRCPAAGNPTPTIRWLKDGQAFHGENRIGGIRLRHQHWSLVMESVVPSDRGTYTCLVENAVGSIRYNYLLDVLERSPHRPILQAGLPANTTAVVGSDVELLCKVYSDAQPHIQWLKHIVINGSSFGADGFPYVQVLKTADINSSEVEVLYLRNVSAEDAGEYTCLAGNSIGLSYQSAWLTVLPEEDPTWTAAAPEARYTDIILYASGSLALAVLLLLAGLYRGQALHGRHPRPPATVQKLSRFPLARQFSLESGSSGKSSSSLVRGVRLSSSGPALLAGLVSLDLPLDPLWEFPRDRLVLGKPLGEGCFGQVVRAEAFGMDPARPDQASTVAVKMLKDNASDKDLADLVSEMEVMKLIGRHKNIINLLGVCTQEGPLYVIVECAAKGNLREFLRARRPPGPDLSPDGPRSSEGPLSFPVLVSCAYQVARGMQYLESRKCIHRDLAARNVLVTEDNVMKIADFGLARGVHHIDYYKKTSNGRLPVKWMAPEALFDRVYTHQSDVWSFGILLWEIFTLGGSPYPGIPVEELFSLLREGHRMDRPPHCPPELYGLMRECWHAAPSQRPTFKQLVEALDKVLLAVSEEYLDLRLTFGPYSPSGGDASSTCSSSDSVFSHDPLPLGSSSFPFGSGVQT
FLT4, sequence (P35916 whole entry): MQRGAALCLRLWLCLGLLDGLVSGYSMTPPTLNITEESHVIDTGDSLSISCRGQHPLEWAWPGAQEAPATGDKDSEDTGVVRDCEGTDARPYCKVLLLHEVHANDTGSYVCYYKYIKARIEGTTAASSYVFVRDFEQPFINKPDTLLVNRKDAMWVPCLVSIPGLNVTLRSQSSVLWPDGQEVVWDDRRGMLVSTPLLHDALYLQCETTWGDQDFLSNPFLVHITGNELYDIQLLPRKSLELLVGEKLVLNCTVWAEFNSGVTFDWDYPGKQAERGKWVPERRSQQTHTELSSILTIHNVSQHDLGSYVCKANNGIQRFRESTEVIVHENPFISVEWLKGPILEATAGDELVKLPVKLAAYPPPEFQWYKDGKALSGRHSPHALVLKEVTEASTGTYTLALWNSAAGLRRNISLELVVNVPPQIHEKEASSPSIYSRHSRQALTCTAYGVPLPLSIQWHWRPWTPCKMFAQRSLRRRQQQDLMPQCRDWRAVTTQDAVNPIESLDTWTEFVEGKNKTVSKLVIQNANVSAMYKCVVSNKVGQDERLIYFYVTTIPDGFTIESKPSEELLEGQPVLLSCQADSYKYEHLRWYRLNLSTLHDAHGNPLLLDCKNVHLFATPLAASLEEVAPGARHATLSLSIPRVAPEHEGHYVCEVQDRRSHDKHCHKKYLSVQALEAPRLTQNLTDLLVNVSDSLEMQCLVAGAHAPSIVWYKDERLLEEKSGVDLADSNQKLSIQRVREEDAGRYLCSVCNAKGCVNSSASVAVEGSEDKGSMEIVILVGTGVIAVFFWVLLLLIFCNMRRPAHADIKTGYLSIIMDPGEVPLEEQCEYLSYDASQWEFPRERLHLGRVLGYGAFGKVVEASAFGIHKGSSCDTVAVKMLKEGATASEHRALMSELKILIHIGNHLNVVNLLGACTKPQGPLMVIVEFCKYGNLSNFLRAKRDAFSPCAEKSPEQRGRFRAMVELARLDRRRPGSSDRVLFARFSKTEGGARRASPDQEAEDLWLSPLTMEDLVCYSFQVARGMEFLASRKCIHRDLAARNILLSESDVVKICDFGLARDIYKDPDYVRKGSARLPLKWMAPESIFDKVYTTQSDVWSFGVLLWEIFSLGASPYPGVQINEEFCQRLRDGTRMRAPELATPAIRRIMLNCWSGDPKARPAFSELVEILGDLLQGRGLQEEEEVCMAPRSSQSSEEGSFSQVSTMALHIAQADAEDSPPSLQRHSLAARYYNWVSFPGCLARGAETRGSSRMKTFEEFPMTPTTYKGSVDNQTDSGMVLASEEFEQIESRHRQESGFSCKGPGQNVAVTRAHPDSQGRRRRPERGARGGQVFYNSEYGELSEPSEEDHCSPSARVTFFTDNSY
FER, sequence (P16591 whole entry): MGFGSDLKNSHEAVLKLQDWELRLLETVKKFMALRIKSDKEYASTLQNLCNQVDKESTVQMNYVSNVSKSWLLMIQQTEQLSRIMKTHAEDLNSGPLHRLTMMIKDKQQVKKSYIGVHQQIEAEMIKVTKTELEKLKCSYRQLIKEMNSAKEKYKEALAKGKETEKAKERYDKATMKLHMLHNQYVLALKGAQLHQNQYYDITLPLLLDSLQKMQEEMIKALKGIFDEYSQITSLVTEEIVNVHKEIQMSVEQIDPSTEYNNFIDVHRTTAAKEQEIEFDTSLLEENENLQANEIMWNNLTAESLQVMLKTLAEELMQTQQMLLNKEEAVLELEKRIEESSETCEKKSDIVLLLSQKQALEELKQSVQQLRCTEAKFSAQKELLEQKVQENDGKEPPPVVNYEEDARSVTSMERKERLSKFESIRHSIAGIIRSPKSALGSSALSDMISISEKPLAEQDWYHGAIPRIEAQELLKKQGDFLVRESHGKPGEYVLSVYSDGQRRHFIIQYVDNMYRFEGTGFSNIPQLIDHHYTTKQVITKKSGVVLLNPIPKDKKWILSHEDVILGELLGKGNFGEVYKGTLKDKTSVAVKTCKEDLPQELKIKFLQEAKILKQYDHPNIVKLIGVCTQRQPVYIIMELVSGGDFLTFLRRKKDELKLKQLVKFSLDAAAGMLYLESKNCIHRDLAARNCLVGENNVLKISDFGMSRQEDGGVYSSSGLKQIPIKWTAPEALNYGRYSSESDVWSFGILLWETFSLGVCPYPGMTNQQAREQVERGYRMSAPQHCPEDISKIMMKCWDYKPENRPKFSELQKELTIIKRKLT
TGFBR2, sequence (P37173 whole entry): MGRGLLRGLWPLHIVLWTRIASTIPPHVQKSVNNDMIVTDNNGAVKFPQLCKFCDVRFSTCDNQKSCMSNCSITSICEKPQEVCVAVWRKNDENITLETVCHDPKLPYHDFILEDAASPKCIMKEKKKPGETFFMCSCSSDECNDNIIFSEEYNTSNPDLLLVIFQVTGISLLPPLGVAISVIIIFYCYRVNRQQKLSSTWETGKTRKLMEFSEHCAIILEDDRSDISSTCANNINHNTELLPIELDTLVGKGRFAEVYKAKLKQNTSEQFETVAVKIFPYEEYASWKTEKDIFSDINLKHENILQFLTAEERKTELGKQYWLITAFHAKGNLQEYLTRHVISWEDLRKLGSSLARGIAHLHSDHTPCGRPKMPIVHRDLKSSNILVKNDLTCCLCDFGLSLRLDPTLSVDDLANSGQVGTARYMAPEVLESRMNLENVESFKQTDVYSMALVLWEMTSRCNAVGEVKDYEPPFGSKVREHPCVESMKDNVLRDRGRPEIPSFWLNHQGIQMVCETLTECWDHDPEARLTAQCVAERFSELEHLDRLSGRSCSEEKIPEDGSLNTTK

SMILES: NC(=O)c1cccc2cn(-c3ccc([C@@H]4CCCNC4)cc3)nc12 [Niraparib]
percent of control binding at 10 µM (CDK2; [3]): 100% | percent of control binding at 10 µM (FER; [3]): 93% | percent of control binding at 10 µM (FGFR4; [3]): 94% | percent of control binding at 10 µM (FLT3(D835V); [3]): 83% | percent of control binding at 10 µM (FLT4; [3]): 99% | percent of control binding at 10 µM (HIPK3; [3]): 2.5% | percent of control binding at 10 µM [1, 3]: 95% | percent of control binding at 10 µM [2, 3]: 80% | percent of control binding at 10 µM (TGFBR2; [3]): 92%

percent of control binding at 10 µM (CDK2; [4]): 93% | percent of control binding at 10 µM (FER; [4]): 100% | percent of control binding at 10 µM (FGFR4; [4]): 82% | percent of control binding at 10 µM (FLT3(D835V); [4]): 100% | percent of control binding at 10 µM (FLT4; [4]): 97% | percent of control binding at 10 µM (HIPK3; [4]): 100% | percent of control binding at 10 µM [1, 4]: 83% | percent of control binding at 10 µM [2, 4]: 92% | percent of control binding at 10 µM (TGFBR2; [4]): 89%
SMILES: O=C(c1cc(Cc2n[nH]c(=O)c3ccccc23)ccc1F)N1CCN(C(=O)C2CC2)CC1 [Olaparib]

percent of control binding at 10 µM (CDK2; [5]): 98% | percent of control binding at 10 µM (FER; [5]): 95% | percent of control binding at 10 µM (FGFR4; [5]): 91% | Rucaparib / %Ctrl @ 10000nM (FLT3(D835V); binding competition, % of control): 15% | percent of control binding at 10 µM (FLT4; [5]): 95% | percent of control binding at 10 µM (HIPK3; [5]): 18% | percent of control binding at 10 µM [1, 5]: 70% | percent of control binding at 10 µM [2, 5]: 91% | percent of control binding at 10 µM (TGFBR2; [5]): 96%
SMILES: CNCc1ccc(-c2[nH]c3cc(F)cc4c3c2CCNC4=O)cc1 [Rucaparib]

percent of control binding at 10 µM (CDK2; [6]): 96% | percent of control binding at 10 µM (FER; [6]): 94% | percent of control binding at 10 µM (FGFR4; [6]): 100% | percent of control binding at 10 µM (FLT3(D835V); [6]): 100% | percent of control binding at 10 µM (FLT4; [6]): 93% | percent of control binding at 10 µM (HIPK3; [6]): 55% | percent of control binding at 10 µM [1, 6]: 100% | percent of control binding at 10 µM [2, 6]: 100% | percent of control binding at 10 µM (TGFBR2; [6]): 98%
SMILES: Cn1ncnc1[C@H]1c2n[nH]c(=O)c3cc(F)cc(c23)N[C@@H]1c1ccc(F)cc1 [Talazoparib]
